Laboratory results: patent EP4455667B1, “DEVICE FOR DETECTING MOLECULES” (Viscera Technologies Ltd, priority 2023, dated 2024)
≈ marks a conversion by molar mass, not a printed value.

Key:
avidin = avidin (Gallus gallus, UniProt P02701); conditions: association constant from literature (Hermanson); cited from earlier work
[1] = tested on: anti-3-Nitrotyrosine antibody; experiment: Lateral flow assay for NHPA in synthetic urine; type: binding
Description: The LFA was assembled using a nitrocellulose membrane attached to a plastic backing card (Figure 13). An anti-3-Nitrotyrosine antibody line was printed at 1mg/mL concentration, the line consisted of 20 lines, each with 25 µm width, using 0.1 µL antibody solution/cm/line. A streptavidin line was printed at 1mg/mL concentration and consisted of 10 lines, each with 50 µm width, using 0.1 µL streptavidin solution/cm/line. The membrane was sealed in a foil bag with desiccant silica gel sachets and stored in the fridge until used.
On the test day the wicking pad (5 x 17 mm) was attached to the membrane (2 mm overlap) and the plastic card was cut into strips (5 mm width). Glass fibre conjugate pads (5 x 7 mm) were soaked in AuNP-BSA-biotin-NHPA conjugate (0.5 OD) and dried in a desiccator for 2 hours. The conjugate pad was then attached to the membrane (2mm overlap). […]
Different concentrations of NHPA in synthetic urine (200 µL) were prepared in respective wells of a low-binding 96-well microplate. […] The images of the test strips (Figure 14) were analysed by ImageJ software. […] The grey level of the pixels in each test line was measured and subtracted from the background to calculate each line intensity and its dependence on the NHPA concentration (Figure 15b).

anti-caffeine antibody [2] = experiment: Modified competitive lateral flow assay for caffeine with two test lines; type: binding, mouse
Description: The LFA was assembled using a nitrocellulose membrane attached to a plastic backing card. Anti-caffeine antibody and avidin were immobilised at test lines 1 and 2, respectively, in the detection zone. […] The membrane was dried at RT for 2 hours. The wick was attached to the membrane (2 mm overlap) and the plastic card was cut into strips (5 mm x 60 mm). Glass fibre conjugate pads were soaked in 30% (w/v) sucrose in Milli-Q water and dried in an oven at 37°C. […] The conjugate pad was attached to the membrane and the prepared strips were kept in a desiccator until use.
Different concentrations of caffeine in 2% (w/v) BSA were prepared in respective wells of a low-binding 96-well microplate. The test strips were placed into each well vertically for 3 min, after which they were removed and left to dry. Images of the test strips were taken and analysed by ImageJ software. The grey level of the pixels in each test line was measured and subtracted from the background.
The effects of applying different concentrations of caffeine to the LFA were investigated to determine the working range and sensitivity that can be achieved for caffeine detection. The LFA test strips were prepared according to the design of the assay shown in Figure 3 and run using different concentrations of caffeine ranging from 1 ng/mL to 100 µg/mL. The optimised running buffer included glycerol as an agent to regulate wicking rate, and BSA and Tween-20 as blocking agents to reduce non-specific binding.
As well as visual inspection, the signal intensity of the test lines was analysed using ImageJ software. The signal intensities of test lines 1 and 2 at different caffeine concentrations were plotted in a semi-log graph as shown in Figure 11 (results were measured in triplicates). […] Table 1 - Semi-quantitative analysis of caffeine concentration based on the ratio between the signal intensities of test lines 1 and 2.

anti-caffeine antibody [3] = tested on: anti-caffeine antibody
Description: (§1) A 96-well ELISA plate was coated with anti-caffeine antibody (50 µL, 6 µg/mL, in PBS buffer, pH 7.4) by incubating the plate for 1 hour at RT. The plate was blocked with 2% (w/v) BSA in PBS with 0.05% (v/v) Tween-20, pH 7.4, for 2 hours at RT. BSA-biotin-caffeine conjugate (50 µL) at different concentrations were added to the plate and incubated for 1 hour at RT. HRP-labelled avidin (50 µL, 1:5000 dilution in blocking buffer) was added and the plate was incubated for 1 hour in the dark at RT. After thorough washing of the plate, the colour was developed by adding 3,3',5,5'-tetramethylbenzidine (TMB) liquid substrate system (50 µL). The reaction was stopped by the addition of 1 M H2SO4 (50 µL) and the absorbance at 450 nm was recorded.
(§2) Same general protocol as direct ELISA. Plate was coated with anti-caffeine antibody (50 µL, 6 µg/mL, in PBS buffer, pH 7.4) and blocked with 2% (w/v) BSA in PBS with 0.05% (v/v) Tween-20, pH 7.4. BSA-biotin-caffeine conjugate (25 µL, 40 mg/mL) was mixed with caffeine (25 µL) at different concentrations of the latter, added to the plate and incubated for 1 hour at RT. HRP-labelled avidin (50 µL, 1:5000 dilution) was added and the colour was developed by adding TMB liquid substrate system (50 µL). The reaction was stopped by the addition of 1 M H2SO4 (50 µL) and the absorbance at 450 nm was recorded.
(§3) The same ELISA format was used to test the competition of the BSA-biotin-caffeine conjugate and free caffeine for binding to the anti-caffeine antibody coated on the wells. A fixed amount of BSA-biotin-caffeine conjugate (20 µg/mL) was used and the concentration of free caffeine was varied.

anti-caffeine antibody [4] = experiment: Competitive ELISA (free caffeine vs caffeine conjugate)
Description: as §1, §2, §3

[5] = strips kept in a desiccator for seven days at room temperature

avidin, sequence (P02701 25-152, species assumed): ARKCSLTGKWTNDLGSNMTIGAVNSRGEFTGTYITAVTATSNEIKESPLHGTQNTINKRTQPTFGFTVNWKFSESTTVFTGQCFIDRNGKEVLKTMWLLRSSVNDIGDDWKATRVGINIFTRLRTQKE

For `O=C(O)c1ccccc1N=Nc1ccc(O)cc1` [HABA, 4'-hydroxyazobenzene-2-carboxylic acid], the “binding affinity for avidin” value (avidin) is given as 6e+06 M⁻¹.

With `O=C(O)Cc1ccc(O)c([N+](=O)[O-])c1` [NHPA, 3-nitro-4-hydroxyphenylacetic acid] the “decrease of the antibody line's intensity” value ([1]; 250 ng/ml of NHPA in urine samples (synthetic urine)) was “over 90%” and the “threshold of the assay for NHPA detection in urine” value ([1]; synthetic urine, also printed as 250 ± 80 ng/ml) was 170 to 330 ng/mL.

For `O=C(O)CCCC[C@@H]1SC[C@@H]2NC(=O)N[C@@H]21` [biotin], the “binding affinity for avidin” value (avidin) is given as 1.3e+15 M⁻¹.

With `Cn1c(=O)c2c(ncn2C)n(C)c1=O` [caffeine] the “IC50 value of test line 1” value (anti-caffeine antibody [2]; anti-caffeine antibody line, signal intensity by ImageJ, triplicates, fresh strips) was 5 ng/mL, the “IC50 value of test line 2” value (anti-caffeine antibody [2]; avidin line, signal intensity by ImageJ, triplicates, fresh strips) was 8 ng/mL and the “IC50 value of test line 1” value (anti-caffeine antibody [2]; [5]) was 3 ng/mL. For the same compound, the “IC50 value of test line 2” value (anti-caffeine antibody [2]; [5]) was 11 ng/mL, the visual detection limit (anti-caffeine antibody [2]; test line 1 only (no colour developed), no calibration) was 10000 ng/mL and the visual detection limit (anti-caffeine antibody [2]; test line 2, strips stored seven days at room temperature) was 10 ng/mL. The visual detection limit (anti-caffeine antibody [2]; with the second test line (test line 2), fresh strips) was 10 ng/mL, the IC50 (anti-caffeine antibody [3]) was 7 ng/mL (≈ 0.036 µM) and the “detection limit, determined by the concentration of caffeine that results in 10% inhibition” value (anti-caffeine antibody [4]; BSA-biotin-caffeine conjugate (20 µg/mL) as competitor) was 0.03 ng/mL. It also gave an IC50 value (anti-caffeine antibody [4]; fixed BSA-biotin-caffeine conjugate (20 µg/mL), free caffeine varied, absorbance at 450 nm, dose response fit) of 1 ng/mL (≈ 0.00515 µM).
